# Measured values: patent US6737383B1, “Herbicidal oxadiazolidines” (priority 1999, dated 2004)
# Legend:
# blackgrass = assay: Test B pre/postemergence blackgrass; format: in vivo, Alopecurus myosuroides
# Summary of the method: (§1)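 Herbicidal effect was estimated by eye on a ten-point control scale after plants spent twelve to sixteen days in a greenhouse following soil or foliar treatment. Foliar sprays targeted plants at one to four leaves; all doses were formulated in a non-phytotoxic solvent with surfactant.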
# velvetleaf = assay: Test B pre/postemergence velvetleaf; format: in vivo, Abutilon theophrasti; conditions: for Plant response rating, Velvetleaf: scale of 0 to 10 where 0 is no effect and 10 is complete control
# Summary of the method: as §1
# bamyardgrass = assay: Test B flood test barnyardgrass; format: in vivo, Echinochloa crus-galli
# Summary of the method: (§2)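 Plants were grown to the 2-leaf stage before treatment with test chemical, then held in a greenhouse for twelve to sixteen days. Injury was visually rated against untreated controls on a 0–10 scale, where 0 is no effect and 10 is complete control.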
# purple nutsedge = assay: Test B pre/postemergence purple nutsedge; format: in vivo, Cyperus rotundus
# Summary of the method: as §1
# bedstraw = assay: Test B pre/postemergence bedstraw; format: in vivo, Galium aparine; conditions: for Bedstraw plant response rating: scale 0 to 10, 0 is no effect, 10 is complete control
# Summary of the method: as §1
# surinam grass = assay: Test B pre/postemergence surinam grass; format: in vivo, Brachiaria decumbens
# Summary of the method: as §1
# rice = assay: Test B flood test rice; format: in vivo, Oryza sativa
# Summary of the method: as §2
# sugar beet = assay: Test B pre/postemergence sugar beet; format: in vivo, Beta vulgaris; conditions: for Plant response rating, Sugarbeets: scale of 0 to 10 where 0 is no effect and 10 is complete control
# Summary of the method: as §1
# soybean = assay: Test B pre/postemergence soybean; format: in vivo, Glycine max; conditions: for Plant response rating, Soybean: scale of 0 to 10 where 0 is no effect and 10 is complete control
# Summary of the method: as §1
# smallflower flatsedge = assay: Test B flood test smallflower flatsedge; format: in vivo, Cyperus difformis
# Summary of the method: as §2
# pigweed = assay: Test B pre/postemergence pigweed; format: in vivo, Amaranthus retroflexus; conditions: for Plant response rating, Redroot pigweed: scale of 0 to 10 where 0 is no effect and 10 is complete control
# Summary of the method: as §1
# wild oat = assay: Test B pre/postemergence wild oat; format: in vivo, Avena fatua; conditions: for Plant response rating, Wild oats: scale of 0 to 10 where 0 is no effect and 10 is complete control
# Summary of the method: as §1
# giant foxtail = assay: Test B pre/postemergence giant foxtail; format: in vivo, Setaria faberii
# Summary of the method: as §1
# cocklebur = assay: Test B pre/postemergence cocklebur; format: in vivo, Xanthium strumarium
# Summary of the method: as §1
# corn = assay: Test B pre/postemergence corn; format: in vivo, Zea mays
# Summary of the method: as §1
# crabgrass = assay: Test B pre/postemergence crabgrass; format: in vivo, Digitaria sanguinalis
# Summary of the method: as §1
# [1] = Postemergence, Rate 250 g/ha, scale 0 to 10
# [2] = Postemergence, Rate 500 g/ha, scale of 0 to 10 where 0 is no effect and 10 is complete control
# [3] = Preemergence, Rate 62 g/ha, scale of 0 to 10 where 0 is no effect and 10 is complete control
# [4] = Preemergence, Rate 125 g/ha, scale of 0 to 10 where 0 is no effect and 10 is complete control
# [5] = Preemergence, Rate 250 g/ha, scale 0 to 10, 0 is no effect, 10 is complete control
# [6] = Preemergence, Rate 500 g/ha, scale 0 to 10, 0 is no effect, 10 is complete control
# [7] = Rate 62 g/ha, Postemergence, scale 0 to 10 (0 no effect, 10 complete control)
# [8] = Rate 125 g/ha, Postemergence, scale 0 to 10, 0 is no effect, 10 is complete control
# [9] = Rate 62 g/ha, flood test species, Pre-emergence, visual evaluation after twelve to sixteen days
# [10] = Rate 125 g/ha, under heading Pre-emergence, flood test species, visual evaluation after twelve to sixteen days
# [11] = Rate 250 g/ha, Pre-emergence (flood test species), scale 0 to 10, 0 is no effect, 10 is complete control
# [12] = Rate 500 g/ha, Pre-emergence, flood test species, scale 0 to 10 (0 no effect, 10 complete control)
compound,measurement,setting,value
CC(C)N(C(=O)n1oc(=O)n(CC(=O)N(C)C)c1=O)c1ccc(Cl)cc1 [Compound 477],Blackgrass plant response rating,blackgrass; [1],6
same,Blackgrass plant response rating,blackgrass; [2],6
same,"Plant response rating, Blackgrass",blackgrass; [3],0
same,"Plant response rating, Blackgrass",blackgrass; [4],1
same,Blackgrass plant response rating,blackgrass; [5],7
same,Blackgrass plant response rating,blackgrass; [6],8
same,Blackgrass plant response rating,blackgrass; [7],0
same,Blackgrass plant response rating,blackgrass; [8],0
same,Velvetleaf plant response rating,velvetleaf; [1],0
same,"Plant response rating, Velvetleaf","velvetleaf; Preemergence, Rate 62 g/ha",0
same,"Plant response rating, Velvetleaf","velvetleaf; Preemergence, Rate 125 g/ha",0
same,Velvetleaf plant response rating,velvetleaf; [5],0
same,Velvetleaf plant response rating,velvetleaf; [6],0
same,Velvetleaf plant response rating,velvetleaf; [7],0
same,Velvetleaf plant response rating,velvetleaf; [8],0
same,"Plant response rating, Barnyardgrass (0 to 10 scale, 0 is no effect, 10 is complete control)",bamyardgrass; [9],0
same,"Barnyardgrass plant response rating (0 to 10 scale, 0 is no effect, 10 is complete control)",bamyardgrass; [10],0
same,Barnyardgrass plant response rating,bamyardgrass; [11],0
same,Barnyardgrass plant response rating,bamyardgrass; [12],0
same,Nutsedge plant response rating,purple nutsedge; [1],0
same,"Plant response rating, Nutsedge",purple nutsedge; [4],0
same,Nutsedge plant response rating,purple nutsedge; [5],0
same,Nutsedge plant response rating,purple nutsedge; [6],0
same,Nutsedge plant response rating,purple nutsedge; [7],0
same,Nutsedge plant response rating,purple nutsedge; [8],0
same,"Plant response rating, Bedstraw",bedstraw; [3],0
same,Bedstraw plant response rating,"bedstraw; Preemergence, Rate 500 g/ha",3
same,Bedstraw plant response rating,"bedstraw; Rate 125 g/ha, Postemergence",0
same,B. signalgrass plant response rating,"surinam grass; Postemergence, Rate 250 g/ha, scale 0 to 10, 0 no effect, 10 complete control",5
same,B. signalgrass plant response rating,surinam grass; [2],5
same,"Plant response rating, B. signalgrass",surinam grass; [3],0
same,"Plant response rating, B. signalgrass",surinam grass; [4],2
same,B. signalgrass plant response rating,surinam grass; [5],4
same,B. signalgrass plant response rating,surinam grass; [6],6
same,B. signalgrass plant response rating,surinam grass; [7],0
same,B. signalgrass plant response rating,surinam grass; [8],0
same,"Plant response rating, Rice (0 to 10 scale, 0 is no effect, 10 is complete control)",rice; [9],0
same,"Rice plant response rating (0 to 10 scale, 0 is no effect, 10 is complete control)",rice; [10],0
same,Rice plant response rating,rice; [11],0
same,Rice plant response rating,rice; [12],0
same,Sugarbeets plant response rating,sugar beet; [1],0
same,"Plant response rating, Sugarbeets","sugar beet; Preemergence, Rate 62 g/ha",0
same,"Plant response rating, Sugarbeets","sugar beet; Preemergence, Rate 125 g/ha",0
same,Sugarbeets plant response rating,sugar beet; [5],0
same,Sugarbeets plant response rating,sugar beet; [6],0
same,Sugarbeets plant response rating,sugar beet; [7],0
same,Sugarbeets plant response rating,sugar beet; [8],0
same,Soybean plant response rating,soybean; [1],2
same,"Plant response rating, Soybean","soybean; Preemergence, Rate 62 g/ha",0
same,"Plant response rating, Soybean","soybean; Preemergence, Rate 125 g/ha",0
same,Soybean plant response rating,soybean; [5],3
same,Soybean plant response rating,soybean; [6],4
same,Soybean plant response rating,soybean; [7],1
same,Soybean plant response rating,soybean; [8],1
same,"Plant response rating, S. Flatsedge (0 to 10 scale, 0 is no effect, 10 is complete control)",smallflower flatsedge; [9],0
same,"S. Flatsedge plant response rating (0 to 10 scale, 0 is no effect, 10 is complete control)",smallflower flatsedge; [10],0
same,S. Flatsedge plant response rating,smallflower flatsedge; [11],0
same,S. Flatsedge plant response rating,smallflower flatsedge; [12],0
same,Redroot pigweed plant response rating,pigweed; [1],2
same,"Plant response rating, Redroot pigweed","pigweed; Preemergence, Rate 62 g/ha",0
same,"Plant response rating, Redroot pigweed","pigweed; Preemergence, Rate 125 g/ha",1
same,Redroot pigweed plant response rating,pigweed; [5],6
same,Redroot pigweed plant response rating,pigweed; [6],8
same,Redroot pigweed plant response rating,pigweed; [7],0
same,Redroot pigweed plant response rating,pigweed; [8],0
same,Wild oats plant response rating,wild oat; [1],0
same,"Plant response rating, Wild oats","wild oat; Preemergence, Rate 62 g/ha",0
same,"Plant response rating, Wild oats","wild oat; Preemergence, Rate 125 g/ha",5
same,Wild oats plant response rating,wild oat; [5],5
same,Wild oats plant response rating,wild oat; [6],7
same,Wild oats plant response rating,wild oat; [7],0
same,Wild oats plant response rating,wild oat; [8],0
same,Giant foxtail plant response rating,giant foxtail; [1],6
same,Giant foxtail plant response rating,giant foxtail; [2],7
same,"Plant response rating, Giant foxtail",giant foxtail; [3],6
same,"Plant response rating, Giant foxtail",giant foxtail; [4],6
same,Giant foxtail plant response rating,giant foxtail; [5],9
same,Giant foxtail plant response rating,giant foxtail; [6],10
same,Giant foxtail plant response rating,giant foxtail; [7],2
same,Giant foxtail plant response rating,giant foxtail; [8],2
same,Cocklebur plant response rating,cocklebur; [1],0
same,Cocklebur plant response rating,cocklebur; [2],0
same,"Plant response rating, Cocklebur",cocklebur; [3],0
same,"Plant response rating, Cocklebur",cocklebur; [4],0
same,Cocklebur plant response rating,cocklebur; [5],0
same,Cocklebur plant response rating,cocklebur; [6],0
same,Cocklebur plant response rating,cocklebur; [7],0
same,Cocklebur plant response rating,cocklebur; [8],0
same,Corn plant response rating,corn; [1],0
same,Corn plant response rating,corn; [2],0
same,"Plant response rating, Corn",corn; [3],0
same,"Plant response rating, Corn",corn; [4],0
same,Corn plant response rating,corn; [5],0
same,Corn plant response rating,corn; [6],0
same,Corn plant response rating,corn; [7],0
same,Corn plant response rating,corn; [8],0
same,Crabgrass plant response rating,crabgrass; [1],5
same,Crabgrass plant response rating,crabgrass; [2],7
same,"Plant response rating, Crabgrass",crabgrass; [3],8
same,"Plant response rating, Crabgrass",crabgrass; [4],8
same,Crabgrass plant response rating,crabgrass; [5],10
same,Crabgrass plant response rating,crabgrass; [6],10
same,Crabgrass plant response rating,crabgrass; [7],1
same,Crabgrass plant response rating,crabgrass; [8],2
